Measured values as given in PMC11984924, “Dipeptidic Phosphonates: Potent Inhibitors of Pseudomonas aeruginosa Elastase B Showing Efficacy in a Murine Keratitis Model” (Advanced Science, 2025).

Legend:
[1] = Tolerability study in male CD1 mice, repeated TID intravenous dosing; format: in vivo; details: mouse, 300 and 600 mg/kg/day, 3 days
Description: Table S8: Percent (%) inhibition of the metabolic activity of three human cell lines HepG2 (hepatocellular carcinoma cells), HEK293 (human embryonic kidney 293 cells) and A549 (lung carcinoma epithelial cells). Results are means and SD of at least two independent ex periments.
3.10 Evaluation of Zebrafish embryo toxicity
The experiment was performed according to a procedure described in the literature with minor modifications using zebrafish embryos of the AB wild -type line at 1 day post fertilization (dpf). A detailed protocol has been given in our recent publication.[16]
Starting exposure ar 2 dpf. Ten larvae were tested for each condition. Dpf: days post fertilization.
3.11 Tolerability study in male CD1 mice
This in vivo experiment was carried out at the CRO Selvita (Zagreb, Croatia). The study was performed in an AAALAC I- approved Facility. The standard study plan relating to this study was reviewed by the Ethics Committee (CARE- Zagreb) as required by International Laws/Regulations and Croatian Low on Animal Welfare (“The Animal Protection Act”, Official Gazette, NN 135/06 and NN 37/13) and Animal Welfare Officer. Animals were kept in solid […]
The observations and examinations that were made, comprise clinical signs, body weight, food consumption, macroscopy at termination and organ weights. Mortality was recorded twice a day, i.e. in the morning and at the end of the working day.

[2] = tested on: P. aeruginosa strain PA54 keratitis; test: Murine Pseudomonas keratitis model; format: in vivo, mouse
Description: Based on our previous findings on target engagement in a murine pneumonia model in combination with a standard‐of‐care antibiotic,^[ [30] ^] we applied the dipeptide (R)‐30 alone and in combination with the commonly used antibiotic meropenem.^[ [9] ^] The keratitis model was carried out using aged female C57BL/6 mice, as previously published.^[ [37] ^] For infection, 5*10^7 colony forming units (CFUs) of PA54 were topically administered on denuded, mechanically harmed corneas. Treatments with meropenem, (R)‐30, or meropenem in combination with (R)‐30 were performed every 8 h for 72 h (first treatment at 6 h post infection). Each of the in total nine 5 µL‐doses contained 1 mg/mL (R)‐30 and/or 0.5 mg mL^−1 meropenem. Sham‐treated mice received 5 µL‐doses of the vehicle (0.9% saline and 1% DMSO) at the time points indicated above, and uninfected eyes received no treatment. […]
Animals: The animal experiments were approved by Saarland University’s Animal Welfare Committee (Application number: 17/2021) and conducted in accordance with German and European recommendations and guidelines for the ethical use of animals. The laboratory animals were all C57BL/6N female eight to eleven months old mice. Keeping in specific pathogen-free conditions was provided. Unlimited access to water and show was secured.
Temperature was closely maintained around 22 °C and relative air humidity around 50%. Light and darkness alternated at twelve-hour intervals. All laboratory animals were purchased from Charles River GmbH, Sulzfeld, Germany.
P. aeruginosa: The P. aeruginosa strain PA54 was employed to induce an experimental bacterial keratitis in the aforementioned C57BL/6N mice. The strain PA54 was isolated from human infections and collected at Saarland University Medical Center’s Institute for Medical Microbiology and Hygienics (IMMH) in 2009. According to Magiorakos et al., PA54 can be classified as multidrug-resistant due to its lacking sensibility to the anti-pseudomonal cephalosporins ceftazidime and cefepime, the anti-pseudomonal fluoroquinolones ciprofloxacin and levofloxacin, the […] fosfomycin, and the aminoglycoside gentamicin.[18] The minimum inhibitory concentration (MIC) of the reserve antibiotic meropenem (meropenem trihydrate, Sigma) was 1 µg/mL (sensitivity limit = 2 µg/mL). The exoU- and exoT-positivity of the PA54 strain, foregrounds its keratitogenic potential.
Inoculum: The P. aeruginosa strain PA54 is routinely grown overnight on blood agar (TrypticaseTM Soy Agar, 5% sheep blood, BD, Heidelberg, Germany) at 37 °C. To obtain a stationary phase cell inoculum, a freshly grown colony was inoculated in tryptic soy broth (TSB; BD, Heidelberg, Germany) and cultured at 37 °C and 150 rounds per minute (rpm) for 16 h.
Then, 2 mL were centrifuged at 13,200 rpm at rt for 2 min, whereupon cells were resuspended in spent medium to an OD600 of 10 (∼1×1010 CFU/mL). Short storage on ice followed, before the infection procedure started.
Infection Procedure: Anesthesia and infection were performed as previously published. Briefly, fentanyl (Hameln Pharma Plus GmbH, Hameln, Germany), midazolam hydrochloride (Midazolam-Hameln, 5 mg/mL, Hameln pharma GmbH, Germany) and medetomidine hydrochloride (Domitor, Orion Corporation, Espoo, Finland) were dissolved in 0.9% NaCl (NaCl 0.9%, Ecotainer 500 mL, B. Braun, Melsungen, Germany), dosed at 0.05 mg/kg, 5 mg/kg and 0.5 mg/kg body weight, respectively, and applied by intraperitoneal injection. Analgesia (Carprofen, 5 mg/kg body weight, Zoetis Deutschland GmbH, Berlin, Germany) was ap plied subcutaneously. Lacrimation was stopped with 10 µL of a 0.6% acetylcysteine solution (Pharmacy of Saarland University Hospitals, Homburg, Germany). Local analgesia (0.5% proxymetacaine hydrochloride, Proparakain -POS Augentropfen, Ursapharm Arzneimitt el GmbH, Saarbrücken, Germany) was eye-dropped and removed after 60 seconds. The blunt […]

## CC(=O)c1ccc(NC(=O)[C@@H](NC(=O)[C@@H](CC(C)C)P(=O)(O)O)C(C)C)cc1 [(R)‐30]
[1]
  mortality, body weight, clinical signs: no treatment–related mortality, nor effects on body weight or clinical signs
[2]; day 3 post infection
  effect on bacterial loads in the eye: no clear effect on the bacterial loads
[2]; day 3 post infection, compared to sham treatment / uninfected eyes
  IL‐1β levels in eye homogenate: significant reduction
[2]; day 3 post infection, compared to uninfected eyes
  KC levels in eye homogenate: significantly higher amounts of this chemokine
[2]; day three post infection, topical every 8 h for 72 h, 1 mg/mL (R)-30 and/or 0.5 mg/mL meropenem
  median clinical keratitis score: 4
